The target of test [1] is T1, Tyrosine-protein kinase ZAP-70 (Homo sapiens) (UniProt P43403).
T1 sequence (whole entry): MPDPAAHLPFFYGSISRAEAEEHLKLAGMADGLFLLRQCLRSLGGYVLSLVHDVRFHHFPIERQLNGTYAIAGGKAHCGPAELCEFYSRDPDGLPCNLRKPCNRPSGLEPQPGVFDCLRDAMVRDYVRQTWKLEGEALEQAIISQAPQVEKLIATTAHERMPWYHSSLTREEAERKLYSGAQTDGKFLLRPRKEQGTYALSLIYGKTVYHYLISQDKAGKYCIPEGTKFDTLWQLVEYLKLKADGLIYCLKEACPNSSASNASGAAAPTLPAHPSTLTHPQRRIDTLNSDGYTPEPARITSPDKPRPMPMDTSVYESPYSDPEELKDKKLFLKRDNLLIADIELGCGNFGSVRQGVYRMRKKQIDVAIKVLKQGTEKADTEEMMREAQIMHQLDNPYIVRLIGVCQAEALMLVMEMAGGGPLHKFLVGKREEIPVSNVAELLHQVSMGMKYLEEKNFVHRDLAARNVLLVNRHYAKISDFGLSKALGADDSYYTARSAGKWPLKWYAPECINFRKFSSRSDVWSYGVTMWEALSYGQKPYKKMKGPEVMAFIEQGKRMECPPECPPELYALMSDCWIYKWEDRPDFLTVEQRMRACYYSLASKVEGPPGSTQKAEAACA
The test is described as follows: Inhibition of human recombinant ZAP70 at 15 nM in presence of ATP by radiometric assay relative to control.

Test [2] deals with Serine/threonine-protein kinase Nek4 (Homo sapiens) (UniProt P51957). The test is described as follows: Inhibition of human recombinant NEK4 at 15 nM related to control ULK1.
Serine/threonine-protein kinase Nek4 (Homo sapiens), sequence (P51957 whole entry, looked up): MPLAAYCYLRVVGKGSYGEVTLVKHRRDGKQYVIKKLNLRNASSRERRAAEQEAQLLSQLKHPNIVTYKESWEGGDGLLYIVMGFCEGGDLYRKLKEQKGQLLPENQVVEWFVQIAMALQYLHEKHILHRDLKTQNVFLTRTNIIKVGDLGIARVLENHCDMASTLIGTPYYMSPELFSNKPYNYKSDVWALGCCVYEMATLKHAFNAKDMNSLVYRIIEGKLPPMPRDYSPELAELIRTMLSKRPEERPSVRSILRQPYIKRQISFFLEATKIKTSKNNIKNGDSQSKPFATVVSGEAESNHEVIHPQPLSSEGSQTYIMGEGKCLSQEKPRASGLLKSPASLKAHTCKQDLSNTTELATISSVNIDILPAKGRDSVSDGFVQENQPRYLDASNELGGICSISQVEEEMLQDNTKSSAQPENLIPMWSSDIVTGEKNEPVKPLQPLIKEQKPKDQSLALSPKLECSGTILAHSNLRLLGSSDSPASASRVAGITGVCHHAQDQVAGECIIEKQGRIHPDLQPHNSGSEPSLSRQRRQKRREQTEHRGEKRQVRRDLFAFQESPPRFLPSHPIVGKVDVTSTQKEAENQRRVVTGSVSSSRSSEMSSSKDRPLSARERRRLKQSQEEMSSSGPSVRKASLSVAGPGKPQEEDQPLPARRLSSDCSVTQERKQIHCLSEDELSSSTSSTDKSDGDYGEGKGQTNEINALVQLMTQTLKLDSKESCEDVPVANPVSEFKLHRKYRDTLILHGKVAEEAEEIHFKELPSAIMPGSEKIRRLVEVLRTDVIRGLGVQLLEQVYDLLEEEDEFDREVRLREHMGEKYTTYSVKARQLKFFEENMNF
The target of test [3] is T2, Receptor-interacting serine/threonine-protein kinase 1 (Homo sapiens) (UniProt Q13546).
T2 sequence (whole entry): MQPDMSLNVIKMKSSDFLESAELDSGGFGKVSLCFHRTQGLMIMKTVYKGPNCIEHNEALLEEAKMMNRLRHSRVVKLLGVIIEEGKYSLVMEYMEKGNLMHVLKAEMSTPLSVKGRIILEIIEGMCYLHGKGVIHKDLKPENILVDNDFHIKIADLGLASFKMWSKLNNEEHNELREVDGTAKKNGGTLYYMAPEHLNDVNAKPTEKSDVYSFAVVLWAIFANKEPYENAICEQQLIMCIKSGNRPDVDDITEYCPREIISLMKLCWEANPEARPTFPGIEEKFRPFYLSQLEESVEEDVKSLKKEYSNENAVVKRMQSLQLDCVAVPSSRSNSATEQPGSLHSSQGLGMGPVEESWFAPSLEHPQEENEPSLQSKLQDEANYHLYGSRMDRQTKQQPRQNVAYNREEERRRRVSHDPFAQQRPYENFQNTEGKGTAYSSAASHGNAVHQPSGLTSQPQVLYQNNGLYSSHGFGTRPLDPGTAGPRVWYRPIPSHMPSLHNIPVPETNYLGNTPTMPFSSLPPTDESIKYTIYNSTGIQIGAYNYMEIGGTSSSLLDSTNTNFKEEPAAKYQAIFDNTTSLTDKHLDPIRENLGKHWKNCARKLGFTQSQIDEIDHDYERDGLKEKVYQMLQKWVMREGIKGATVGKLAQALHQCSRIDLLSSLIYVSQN
The test is described as follows: Inhibition of human recombinant RIPK1 at 40 nM related to control ULK1.

For test [4], the target named is Serine/threonine-protein kinase 24 (Homo sapiens) (UniProt Q9Y6E0). The test is described as follows: Inhibition of human recombinant MST3 at 40 nM in presence of ATP by radiometric assay relative to control.
Serine/threonine-protein kinase 24 (Homo sapiens), sequence (Q9Y6E0 whole entry, looked up): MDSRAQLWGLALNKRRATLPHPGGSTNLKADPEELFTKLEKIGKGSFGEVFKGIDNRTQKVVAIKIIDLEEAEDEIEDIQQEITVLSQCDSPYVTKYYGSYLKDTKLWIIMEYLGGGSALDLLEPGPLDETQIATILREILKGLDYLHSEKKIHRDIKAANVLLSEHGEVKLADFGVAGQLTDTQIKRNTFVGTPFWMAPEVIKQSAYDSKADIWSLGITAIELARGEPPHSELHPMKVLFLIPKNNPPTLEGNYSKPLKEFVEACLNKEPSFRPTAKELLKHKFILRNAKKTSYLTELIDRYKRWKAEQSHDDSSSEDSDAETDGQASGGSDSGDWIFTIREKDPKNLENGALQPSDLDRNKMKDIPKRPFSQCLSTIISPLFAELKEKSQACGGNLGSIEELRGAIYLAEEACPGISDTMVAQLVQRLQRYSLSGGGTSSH
In test [5] the target is Cyclin-dependent kinase 7 (Homo sapiens) (UniProt P50613). Nature of the test: Inhibition of human recombinant CDK7 at 500 nM in presence of ATP by radiometric assay relative to control.
Cyclin-dependent kinase 7 (Homo sapiens), sequence (P50613 whole entry): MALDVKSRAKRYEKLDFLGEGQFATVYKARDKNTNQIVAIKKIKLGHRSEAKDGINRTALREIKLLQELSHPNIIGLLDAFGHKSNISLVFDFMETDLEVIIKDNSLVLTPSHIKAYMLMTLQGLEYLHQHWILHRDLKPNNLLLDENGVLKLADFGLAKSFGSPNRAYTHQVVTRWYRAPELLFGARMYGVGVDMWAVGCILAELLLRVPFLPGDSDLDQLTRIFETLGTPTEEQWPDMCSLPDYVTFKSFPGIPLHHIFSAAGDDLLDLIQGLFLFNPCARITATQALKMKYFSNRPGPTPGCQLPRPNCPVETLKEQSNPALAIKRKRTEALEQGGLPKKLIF
Test [6] has as its target T3, Inhibitor of nuclear factor kappa-B kinase subunit beta (Homo sapiens) (UniProt O14920).
T3 sequence (whole entry): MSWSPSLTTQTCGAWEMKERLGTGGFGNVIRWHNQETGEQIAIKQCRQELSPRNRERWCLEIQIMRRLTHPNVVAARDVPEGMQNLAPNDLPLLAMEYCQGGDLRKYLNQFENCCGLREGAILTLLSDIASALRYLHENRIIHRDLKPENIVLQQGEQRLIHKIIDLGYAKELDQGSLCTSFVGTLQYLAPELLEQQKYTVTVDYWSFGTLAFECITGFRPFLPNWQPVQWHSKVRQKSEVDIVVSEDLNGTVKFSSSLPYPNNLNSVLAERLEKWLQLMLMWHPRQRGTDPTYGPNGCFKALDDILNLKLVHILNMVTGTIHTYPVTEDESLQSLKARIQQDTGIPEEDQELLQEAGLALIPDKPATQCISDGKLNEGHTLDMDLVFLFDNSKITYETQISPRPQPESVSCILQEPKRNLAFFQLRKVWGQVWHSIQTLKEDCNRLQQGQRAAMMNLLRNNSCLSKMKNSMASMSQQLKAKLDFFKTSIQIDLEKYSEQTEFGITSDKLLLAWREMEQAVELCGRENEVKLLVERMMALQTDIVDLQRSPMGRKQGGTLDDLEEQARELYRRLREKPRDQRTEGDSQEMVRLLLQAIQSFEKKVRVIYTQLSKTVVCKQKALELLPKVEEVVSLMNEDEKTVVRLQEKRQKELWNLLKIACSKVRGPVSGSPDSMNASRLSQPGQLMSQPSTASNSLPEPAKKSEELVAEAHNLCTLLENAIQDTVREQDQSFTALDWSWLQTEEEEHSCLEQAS
Nature of the test: Inhibition of human recombinant IKKb at 500 nM related to control ULK1.

The target of test [7] is Tyrosine-protein kinase Fes/Fps (Homo sapiens) (UniProt P07332). Nature of the test: Inhibition of human recombinant FES at 500 nM in presence of ATP by radiometric assay relative to control.
Tyrosine-protein kinase Fes/Fps (Homo sapiens), sequence (P07332 whole entry): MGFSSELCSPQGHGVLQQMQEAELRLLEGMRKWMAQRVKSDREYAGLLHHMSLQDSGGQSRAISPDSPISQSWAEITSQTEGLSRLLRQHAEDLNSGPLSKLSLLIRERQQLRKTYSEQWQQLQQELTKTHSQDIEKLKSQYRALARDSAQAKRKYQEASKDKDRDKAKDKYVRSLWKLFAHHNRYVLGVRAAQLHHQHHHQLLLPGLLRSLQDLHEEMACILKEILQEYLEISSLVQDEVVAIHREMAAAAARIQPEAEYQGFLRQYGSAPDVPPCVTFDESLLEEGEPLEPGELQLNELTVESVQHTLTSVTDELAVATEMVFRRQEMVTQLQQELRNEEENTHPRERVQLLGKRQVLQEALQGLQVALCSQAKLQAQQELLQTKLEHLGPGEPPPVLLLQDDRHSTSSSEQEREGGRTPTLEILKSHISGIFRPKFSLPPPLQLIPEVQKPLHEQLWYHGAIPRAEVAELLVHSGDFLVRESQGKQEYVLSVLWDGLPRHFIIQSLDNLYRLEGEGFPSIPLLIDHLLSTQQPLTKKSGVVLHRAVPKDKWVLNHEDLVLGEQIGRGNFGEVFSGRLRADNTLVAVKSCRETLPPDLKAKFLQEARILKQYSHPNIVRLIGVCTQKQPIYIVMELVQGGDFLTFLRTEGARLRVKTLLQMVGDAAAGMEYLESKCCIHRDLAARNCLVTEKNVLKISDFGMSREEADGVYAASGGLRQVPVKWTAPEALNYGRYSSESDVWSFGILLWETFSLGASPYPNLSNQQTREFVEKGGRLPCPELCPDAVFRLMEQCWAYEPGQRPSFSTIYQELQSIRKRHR
In test [8] the target is Tyrosine-protein kinase SYK (Homo sapiens) (UniProt P43405). Nature of the test: Inhibition of human recombinant SYK at 500 nM in presence of ATP by radiometric assay relative to control.
Test [9] deals with Cyclin-dependent kinase 3 (Homo sapiens) (UniProt Q00526). Nature of the test: Inhibition of human recombinant CDK3 at 500 nM in presence of ATP by radiometric assay relative to control.
Cyclin-dependent kinase 3 (Homo sapiens), sequence (Q00526 whole entry, looked up): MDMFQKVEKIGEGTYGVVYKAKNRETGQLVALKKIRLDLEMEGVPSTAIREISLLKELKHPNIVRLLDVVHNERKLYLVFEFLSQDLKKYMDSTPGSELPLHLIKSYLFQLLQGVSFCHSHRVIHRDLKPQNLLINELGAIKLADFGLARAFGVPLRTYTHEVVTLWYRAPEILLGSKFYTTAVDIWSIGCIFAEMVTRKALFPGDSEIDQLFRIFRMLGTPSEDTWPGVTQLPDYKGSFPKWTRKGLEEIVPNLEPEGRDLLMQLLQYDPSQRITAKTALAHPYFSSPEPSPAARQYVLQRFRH

For `CC(C)[C@H](NC(=O)c1cc(-c2cnn3cc(-c4ccc(OCCN5CCCCC5)cc4)cnc23)cs1)C(F)(F)F`, the inhibition (commonly the relative decrease from the control value, in per cent) in test [1] came to 0%. Besides, in test [2], the fold change (FC) turned out to be 0.07.

For the compound `O=C(N[C@@H](C1CC1)C(F)(F)F)c1cc(-c2cnn3cc(-c4ccc(F)cc4)cnc23)cs1`, the fold change (FC) in test [3] stood at 0.03. Also, the inhibition in [4] stood at 20%.

As for `CNC(=O)c1ccccc1Oc1nc(Nc2cc(OC)c(OC)c(OC)c2)ncc1Br`, the inhibition in test [5] stood at 29%; in test [7], 28%; in test [8], 0%; in test [9], 1%. Besides, in [6], the fold change (FC) was 0.03.

Source of the values: ChEMBL document CHEMBL5653631, “A Potent and Selective ULK1 Inhibitor Suppresses Autophagy and Sensitizes Cancer Cells to Nutrient Stress” (iScience, 2018).
